The source made the active and inactive calls. The calls are words filed in the database; no cut-off is given here.
Tests used:
[1] = target: Citron Rho-interacting kinase (Homo sapiens, UniProt O14578); test: NanoLuc NanoBRET (CITKD); settings: read-out: Kd
[2] = target: Tyrosine-protein kinase ABL2 (Homo sapiens) (UniProt P42684); test: activity of Arg(h) at 1.0 µM in the Eurofins Kinase panel; settings: Compound concentration 1.0 uM
[3] = target: Aurora kinase A (Homo sapiens) (UniProt O14965); test: activity of Aurora-A(h) at 1.0 µM in the Eurofins Kinase panel; settings: Compound concentration 1.0 uM
[4] = target: Serine/threonine-protein kinase BRSK2 (Homo sapiens) (UniProt Q8IWQ3); test: activity of BrSK2(h) at 1.0 µM in the Eurofins Kinase panel; settings: Compound concentration 1.0 uM
[5] = target: Calcium/calmodulin-dependent protein kinase type II subunit delta (Homo sapiens) (UniProt Q13557); test: activity of CaMKIIdelta(h) at 1.0 µM in the Eurofins Kinase panel; settings: Compound concentration 1.0 uM
Sequence of Calcium/calmodulin-dependent protein kinase type II subunit delta (Homo sapiens) (Q13557 whole entry): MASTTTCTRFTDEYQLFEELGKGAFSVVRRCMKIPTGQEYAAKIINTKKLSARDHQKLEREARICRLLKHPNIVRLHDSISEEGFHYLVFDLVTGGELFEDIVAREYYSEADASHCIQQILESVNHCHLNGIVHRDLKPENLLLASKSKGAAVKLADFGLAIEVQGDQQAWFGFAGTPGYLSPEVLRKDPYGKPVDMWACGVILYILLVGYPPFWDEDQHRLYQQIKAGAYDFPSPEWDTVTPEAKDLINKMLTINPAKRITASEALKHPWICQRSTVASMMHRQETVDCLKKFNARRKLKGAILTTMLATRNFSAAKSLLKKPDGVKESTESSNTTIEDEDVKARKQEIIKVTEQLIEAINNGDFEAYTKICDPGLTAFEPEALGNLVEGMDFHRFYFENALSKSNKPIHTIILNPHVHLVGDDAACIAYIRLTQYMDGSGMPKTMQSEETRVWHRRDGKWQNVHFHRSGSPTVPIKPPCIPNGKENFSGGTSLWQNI

[6] = target: Calcium/calmodulin-dependent protein kinase type IV (Homo sapiens) (UniProt Q16566); test: activity of CaMKIV(h) at 1.0 µM in the Eurofins Kinase panel; settings: Compound concentration 1.0 uM
[7] = target: CDC7/Cyclin B1 (Homo sapiens) (UniProt P14635+O00311); test: activity of Cdc7/cyclinB1(h) at 1.0 µM in the Eurofins Kinase panel; type: protein-complex assay; settings: Compound concentration 1.0 uM
[8] = target: Cyclin-dependent kinase 13/Cyclin-K (Homo sapiens) (UniProt Q14004+O75909); test: activity of CDK13/cyclinK(h) at 1.0 µM in the Eurofins Kinase panel; type: protein-complex assay; settings: Compound concentration 1.0 uM
Sequence of Cyclin-dependent kinase 13/Cyclin-K (Homo sapiens) (O75909 whole entry, looked up): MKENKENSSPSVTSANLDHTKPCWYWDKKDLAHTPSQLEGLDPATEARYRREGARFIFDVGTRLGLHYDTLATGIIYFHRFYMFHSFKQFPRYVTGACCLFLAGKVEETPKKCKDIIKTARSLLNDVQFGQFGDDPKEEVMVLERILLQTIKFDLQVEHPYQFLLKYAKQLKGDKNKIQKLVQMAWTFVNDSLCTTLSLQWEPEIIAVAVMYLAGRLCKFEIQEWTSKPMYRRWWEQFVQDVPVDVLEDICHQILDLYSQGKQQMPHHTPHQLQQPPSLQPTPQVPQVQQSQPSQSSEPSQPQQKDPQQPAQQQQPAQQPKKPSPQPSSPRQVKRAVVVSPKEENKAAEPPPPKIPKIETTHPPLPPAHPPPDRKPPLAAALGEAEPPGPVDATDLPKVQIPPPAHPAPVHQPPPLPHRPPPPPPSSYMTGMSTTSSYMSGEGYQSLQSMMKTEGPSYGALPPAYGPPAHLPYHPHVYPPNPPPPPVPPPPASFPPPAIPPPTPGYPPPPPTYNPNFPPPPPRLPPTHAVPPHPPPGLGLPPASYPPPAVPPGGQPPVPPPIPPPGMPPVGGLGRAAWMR
Sequence of Cyclin-dependent kinase 13/Cyclin-K (Homo sapiens) (Q14004 whole entry, looked up): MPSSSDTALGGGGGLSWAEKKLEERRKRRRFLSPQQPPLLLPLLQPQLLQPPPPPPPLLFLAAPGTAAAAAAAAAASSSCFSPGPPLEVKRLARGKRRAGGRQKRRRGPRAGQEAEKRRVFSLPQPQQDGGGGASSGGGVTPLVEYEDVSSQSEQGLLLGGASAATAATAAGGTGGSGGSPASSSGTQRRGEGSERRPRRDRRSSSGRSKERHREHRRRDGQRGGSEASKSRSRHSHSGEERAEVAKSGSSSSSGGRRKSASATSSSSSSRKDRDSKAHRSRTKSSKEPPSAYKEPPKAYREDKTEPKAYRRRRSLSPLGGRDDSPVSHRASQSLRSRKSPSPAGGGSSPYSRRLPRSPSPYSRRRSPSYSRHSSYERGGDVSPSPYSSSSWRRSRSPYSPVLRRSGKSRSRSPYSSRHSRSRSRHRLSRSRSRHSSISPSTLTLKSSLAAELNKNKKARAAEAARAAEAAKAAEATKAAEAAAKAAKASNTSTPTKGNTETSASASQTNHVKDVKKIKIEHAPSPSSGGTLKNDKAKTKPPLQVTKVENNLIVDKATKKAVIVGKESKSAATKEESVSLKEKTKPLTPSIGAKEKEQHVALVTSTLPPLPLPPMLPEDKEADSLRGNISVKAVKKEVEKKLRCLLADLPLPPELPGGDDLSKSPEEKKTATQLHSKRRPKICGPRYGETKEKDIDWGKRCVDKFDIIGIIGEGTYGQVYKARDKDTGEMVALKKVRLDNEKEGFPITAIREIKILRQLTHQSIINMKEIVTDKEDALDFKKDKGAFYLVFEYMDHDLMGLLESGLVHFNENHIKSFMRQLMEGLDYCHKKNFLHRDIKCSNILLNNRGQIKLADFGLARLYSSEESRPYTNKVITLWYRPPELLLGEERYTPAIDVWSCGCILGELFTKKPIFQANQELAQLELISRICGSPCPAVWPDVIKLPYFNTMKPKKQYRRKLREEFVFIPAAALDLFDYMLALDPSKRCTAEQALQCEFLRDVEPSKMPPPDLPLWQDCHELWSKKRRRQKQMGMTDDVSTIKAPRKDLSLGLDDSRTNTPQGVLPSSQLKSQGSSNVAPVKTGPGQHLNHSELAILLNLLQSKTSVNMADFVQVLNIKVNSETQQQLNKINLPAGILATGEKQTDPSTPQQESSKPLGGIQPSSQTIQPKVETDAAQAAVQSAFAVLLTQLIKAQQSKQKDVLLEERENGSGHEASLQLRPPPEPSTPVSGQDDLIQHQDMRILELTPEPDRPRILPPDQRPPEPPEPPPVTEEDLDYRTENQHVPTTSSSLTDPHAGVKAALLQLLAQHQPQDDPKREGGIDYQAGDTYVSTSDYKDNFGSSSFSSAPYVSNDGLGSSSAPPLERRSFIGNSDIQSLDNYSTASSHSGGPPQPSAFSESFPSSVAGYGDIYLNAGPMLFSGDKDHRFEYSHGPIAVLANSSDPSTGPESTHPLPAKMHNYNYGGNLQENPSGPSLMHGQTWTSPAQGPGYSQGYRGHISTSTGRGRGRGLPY

[9] = target: Transient receptor potential cation channel subfamily M member 7 (Homo sapiens) (UniProt Q96QT4); test: activity of ChaK1(h) at 1.0 µM in the Eurofins Kinase panel; settings: Compound concentration 1.0 uM
[10] = target: Casein kinase I isoform epsilon (Homo sapiens) (UniProt P49674); test: activity of CK1epsilon(h) at 1.0 µM in the Eurofins Kinase panel; settings: Compound concentration 1.0 uM
[11] = target: Casein kinase II subunit alpha' (Homo sapiens) (UniProt P19784); test: activity of CK2alpha2(h) at 1.0 µM in the Eurofins Kinase panel; settings: Compound concentration 1.0 uM
[12] = target: Dual specificity protein kinase CLK2 (Homo sapiens) (UniProt P49760); test: activity of CLK2(h) at 1.0 µM in the Eurofins Kinase panel; settings: Compound concentration 1.0 uM
[13] = target: RAF proto-oncogene serine/threonine-protein kinase (Homo sapiens) (UniProt P04049); test: activity of c-RAF(h) at 1.0 µM in the Eurofins Kinase panel; settings: Compound concentration 1.0 uM
Sequence of RAF proto-oncogene serine/threonine-protein kinase (Homo sapiens) (P04049 whole entry): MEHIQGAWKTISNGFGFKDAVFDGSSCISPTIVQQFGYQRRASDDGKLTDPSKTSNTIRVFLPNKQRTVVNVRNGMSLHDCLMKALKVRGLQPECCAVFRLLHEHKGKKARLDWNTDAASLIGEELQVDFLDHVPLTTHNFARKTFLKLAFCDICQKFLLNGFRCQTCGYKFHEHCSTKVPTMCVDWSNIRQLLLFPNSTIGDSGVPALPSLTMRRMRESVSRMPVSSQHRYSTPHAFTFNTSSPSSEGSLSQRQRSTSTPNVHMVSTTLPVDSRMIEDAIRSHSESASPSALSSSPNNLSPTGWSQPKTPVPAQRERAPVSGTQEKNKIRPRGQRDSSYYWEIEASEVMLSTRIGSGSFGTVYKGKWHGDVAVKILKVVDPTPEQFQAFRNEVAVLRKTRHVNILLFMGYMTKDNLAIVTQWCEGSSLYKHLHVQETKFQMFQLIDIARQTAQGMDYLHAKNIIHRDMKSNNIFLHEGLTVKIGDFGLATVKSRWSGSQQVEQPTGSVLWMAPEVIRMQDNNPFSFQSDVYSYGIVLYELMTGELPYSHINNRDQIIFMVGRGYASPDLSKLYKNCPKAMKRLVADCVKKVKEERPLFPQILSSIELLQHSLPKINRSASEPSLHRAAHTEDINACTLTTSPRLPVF

[14] = target: Tyrosine-protein kinase CSK (Homo sapiens) (UniProt P41240); test: activity of CSK(h) at 1.0 µM in the Eurofins Kinase panel; settings: Compound concentration 1.0 uM
[15] = target: Proto-oncogene tyrosine-protein kinase Src (Homo sapiens) (UniProt P12931); test: activity of cSRC(h) at 1.0 µM in the Eurofins Kinase panel; settings: Compound concentration 1.0 uM
[16] = target: Myotonin-protein kinase (Homo sapiens) (UniProt Q09013); test: activity of DMPK(h) at 1.0 µM in the Eurofins Kinase panel; settings: Compound concentration 1.0 uM
[17] = target: Serine/threonine-protein kinase 17A (Homo sapiens) (UniProt Q9UEE5); test: activity of DRAK1(h) at 1.0 µM in the Eurofins Kinase panel; settings: Compound concentration 1.0 uM
Sequence of Serine/threonine-protein kinase 17A (Homo sapiens) (Q9UEE5 whole entry): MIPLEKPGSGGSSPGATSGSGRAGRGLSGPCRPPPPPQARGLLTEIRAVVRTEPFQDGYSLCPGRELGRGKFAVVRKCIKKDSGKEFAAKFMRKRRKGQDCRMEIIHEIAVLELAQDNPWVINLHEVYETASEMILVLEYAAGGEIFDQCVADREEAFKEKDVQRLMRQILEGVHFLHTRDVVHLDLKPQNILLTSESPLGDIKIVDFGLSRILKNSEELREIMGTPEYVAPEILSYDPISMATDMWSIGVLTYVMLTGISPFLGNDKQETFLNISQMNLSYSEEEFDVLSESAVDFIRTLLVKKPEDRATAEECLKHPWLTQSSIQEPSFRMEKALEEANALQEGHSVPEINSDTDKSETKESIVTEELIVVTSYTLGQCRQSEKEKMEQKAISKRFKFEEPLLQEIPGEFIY

[18] = target: Mitogen-activated protein kinase 9 (Homo sapiens) (UniProt P45984); test: activity of JNK2alpha2(h) at 1.0 µM in the Eurofins Kinase panel; settings: Compound concentration 1.0 uM
[19] = target: Tyrosine-protein kinase Lyn (Homo sapiens) (UniProt P07948); test: activity of Lyn(h) at 1.0 µM in the Eurofins Kinase panel; settings: Compound concentration 1.0 uM
Sequence of Tyrosine-protein kinase Lyn (Homo sapiens) (P07948 2-512 limits assumed): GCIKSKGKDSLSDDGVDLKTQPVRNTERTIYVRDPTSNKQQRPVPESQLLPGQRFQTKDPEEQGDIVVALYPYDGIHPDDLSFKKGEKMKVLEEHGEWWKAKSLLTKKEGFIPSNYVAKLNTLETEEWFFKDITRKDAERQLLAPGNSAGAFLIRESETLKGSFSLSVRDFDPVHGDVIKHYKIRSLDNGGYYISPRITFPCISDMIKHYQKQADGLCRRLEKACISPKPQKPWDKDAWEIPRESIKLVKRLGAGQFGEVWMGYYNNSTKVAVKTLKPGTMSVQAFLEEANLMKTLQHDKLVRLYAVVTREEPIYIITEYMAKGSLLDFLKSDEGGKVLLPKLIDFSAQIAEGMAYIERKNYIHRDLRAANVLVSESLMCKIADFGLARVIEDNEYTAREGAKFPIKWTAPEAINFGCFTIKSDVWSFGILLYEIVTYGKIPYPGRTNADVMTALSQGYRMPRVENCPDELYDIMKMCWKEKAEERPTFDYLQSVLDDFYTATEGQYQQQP

[20] = target: Serine/threonine-protein kinase MAK (Homo sapiens) (UniProt P20794); test: activity of MAK(h) at 1.0 µM in the Eurofins Kinase panel; settings: Compound concentration 1.0 uM
Homo sapiens = species on record: Homo sapiens; test: activity of MAPK2(h) at 1.0 µM in the Eurofins Kinase panel; settings: Compound concentration 1.0 uM
[21] = target: MAP/microtubule affinity-regulating kinase 3 (Homo sapiens) (UniProt P27448); test: activity of MARK3(h) at 1.0 µM in the Eurofins Kinase panel; settings: Compound concentration 1.0 uM
[22] = target: Misshapen-like kinase 1 (Homo sapiens) (UniProt Q8N4C8); test: activity of MINK(h) at 1.0 µM in the Eurofins Kinase panel; settings: Compound concentration 1.0 uM
[23] = target: Dual specificity mitogen-activated protein kinase kinase 3 (Homo sapiens) (UniProt P46734); test: activity of MKK3(h) at 1.0 µM in the Eurofins Kinase panel; settings: Compound concentration 1.0 uM
[24] = target: Mitogen-activated protein kinase kinase kinase 21 (Homo sapiens) (UniProt Q5TCX8); test: activity of MLK4(h) at 1.0 µM in the Eurofins Kinase panel; settings: Compound concentration 1.0 uM
[25] = target: Serine/threonine-protein kinase mTOR (Homo sapiens) (UniProt P42345); test: activity of mTOR(h) at 1.0 µM in the Eurofins Kinase panel; settings: Compound concentration 1.0 uM
[26] = target: mTOR/FKBP12A/FKBP12B (Homo sapiens) (UniProt P62942+P68106+P42345); test: activity of mTOR/FKBP12(h) at 1.0 µM in the Eurofins Kinase panel; type: protein-complex assay; settings: Compound concentration 1.0 uM
Sequence of mTOR/FKBP12A/FKBP12B (Homo sapiens) (P62942 2-108 limits assumed, other chains not shown): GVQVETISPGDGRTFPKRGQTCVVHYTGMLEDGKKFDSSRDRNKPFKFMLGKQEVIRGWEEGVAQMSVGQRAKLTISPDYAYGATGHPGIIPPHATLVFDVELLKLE
Sequence of mTOR/FKBP12A/FKBP12B (Homo sapiens) (P68106 whole entry partner, other chains not shown): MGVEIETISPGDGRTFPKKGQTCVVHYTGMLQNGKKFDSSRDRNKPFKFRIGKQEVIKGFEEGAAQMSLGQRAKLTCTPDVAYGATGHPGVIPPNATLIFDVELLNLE

[27] = target: NUAK family SNF1-like kinase 2 (Homo sapiens) (UniProt Q9H093); test: activity of NUAK2(h) at 1.0 µM in the Eurofins Kinase panel; settings: Compound concentration 1.0 uM
Sequence of NUAK family SNF1-like kinase 2 (Homo sapiens) (Q9H093 whole entry): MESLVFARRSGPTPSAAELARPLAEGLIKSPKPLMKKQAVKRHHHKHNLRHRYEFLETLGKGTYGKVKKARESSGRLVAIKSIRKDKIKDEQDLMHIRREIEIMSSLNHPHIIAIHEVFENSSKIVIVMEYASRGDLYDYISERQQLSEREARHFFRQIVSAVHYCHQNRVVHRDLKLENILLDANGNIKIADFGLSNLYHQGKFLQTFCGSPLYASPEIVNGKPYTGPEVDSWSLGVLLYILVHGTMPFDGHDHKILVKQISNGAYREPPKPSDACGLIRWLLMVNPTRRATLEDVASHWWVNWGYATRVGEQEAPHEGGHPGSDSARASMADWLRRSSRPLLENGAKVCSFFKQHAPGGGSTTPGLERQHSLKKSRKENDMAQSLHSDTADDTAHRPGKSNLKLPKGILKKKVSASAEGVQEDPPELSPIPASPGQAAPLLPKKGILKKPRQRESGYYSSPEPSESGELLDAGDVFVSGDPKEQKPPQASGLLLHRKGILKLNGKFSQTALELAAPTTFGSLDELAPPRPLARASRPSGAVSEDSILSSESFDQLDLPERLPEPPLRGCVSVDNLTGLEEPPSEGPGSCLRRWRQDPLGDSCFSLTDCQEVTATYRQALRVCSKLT

[28] = target: RAC-alpha serine/threonine-protein kinase (Homo sapiens) (UniProt P31749); test: activity of PKBalpha(h) at 1.0 µM in the Eurofins Kinase panel; settings: Compound concentration 1.0 uM
[29] = target: Serine/threonine-protein kinase D2 (Homo sapiens) (UniProt Q9BZL6); test: activity of PKD2(h) at 1.0 µM in the Eurofins Kinase panel; settings: Compound concentration 1.0 uM
[30] = target: SRSF protein kinase 1 (Homo sapiens) (UniProt Q96SB4); test: activity of SRPK1(h) at 1.0 µM in the Eurofins Kinase panel; settings: Compound concentration 1.0 uM
[31] = target: Serine/threonine-protein kinase 25 (Homo sapiens) (UniProt O00506); test: activity of STK25(h) at 1.0 µM in the Eurofins Kinase panel; settings: Compound concentration 1.0 uM
[32] = target: Serine/threonine-protein kinase 32B (Homo sapiens) (UniProt Q9NY57); test: activity of STK32B(h) at 1.0 µM in the Eurofins Kinase panel; settings: Compound concentration 1.0 uM
[33] = target: Serine/threonine-protein kinase TBK1 (Homo sapiens) (UniProt Q9UHD2); test: activity of TBK1(h) at 1.0 µM in the Eurofins Kinase panel; settings: Compound concentration 1.0 uM
[34] = target: NT-3 growth factor receptor (Homo sapiens) (UniProt Q16288); test: activity of TrkC(h) at 1.0 µM in the Eurofins Kinase panel; settings: Compound concentration 1.0 uM
[35] = target: Tau-tubulin kinase 2 (Homo sapiens) (UniProt Q6IQ55); test: activity of TTBK2(h) at 1.0 µM in the Eurofins Kinase panel; settings: Compound concentration 1.0 uM
[36] = target: Serine/threonine-protein kinase VRK1 (Homo sapiens) (UniProt Q99986); test: activity of VRK1(h) at 1.0 µM in the Eurofins Kinase panel; settings: Compound concentration 1.0 uM
[37] = target: 3-phosphoinositide-dependent protein kinase 1 (Homo sapiens) (UniProt O15530); test: activity of PDK1(h) at 1.0 µM in the Eurofins Kinase panel; settings: Compound concentration 1.0 uM
[38] = target: Phosphorylase b kinase gamma catalytic chain, testis/liver isoform (Homo sapiens) (UniProt P15735); test: activity of PhKgamma2(h) at 1.0 µM in the Eurofins Kinase panel; settings: Compound concentration 1.0 uM

In the case of `Cc1cc2c(-c3ccc(NC(=O)[C@H](N)CC(C)(C)C)cc3C)ccnc2[nH]1`, the Kd [1] is reported as 0.3 nM (active), the activity [2] is reported as 72% and the activity [3] is reported as 97%. It also gave an activity [4] of 83%, an activity [5] of 96% and an activity [6] of 99%. It also gave an activity [7] of 75%, an activity [8] of 99% and an activity [9] of 106%. For the same compound, the activity [10] was 96%, the activity [11] was 115% and the activity [12] was 106%. It also gave an activity [13] of 106%, an activity [14] of 92% and an activity [15] of 93%. For the same compound, the activity [16] was 93%, the activity [17] was 80% and the activity [18] was 99%. It also gave an activity [19] of 80%, an activity [20] of 120% and an activity (Homo sapiens) of 109%. For the same compound, the activity [21] was 90%, the activity [22] was 89% and the activity [23] was 97%. For the same compound, the activity [24] was 112%, the activity [25] was 95% and the activity [26] was 120%. For the same compound, the activity [27] was 72%, the activity [28] was 87% and the activity [29] was 95%. It also gave an activity [30] of 95%, an activity [31] of 92% and an activity [32] of 115%. The activity [33] was 100%, the activity [34] was 86% and the activity [35] was 94%. The activity [36] was 99%, the activity [37] was 105% and the activity [38] was 98%.
